The target of one test is T1, Human Calpain 1/NS1 (Homo sapiens, UniProt P07384).
T1 sequence (P07384 1-714): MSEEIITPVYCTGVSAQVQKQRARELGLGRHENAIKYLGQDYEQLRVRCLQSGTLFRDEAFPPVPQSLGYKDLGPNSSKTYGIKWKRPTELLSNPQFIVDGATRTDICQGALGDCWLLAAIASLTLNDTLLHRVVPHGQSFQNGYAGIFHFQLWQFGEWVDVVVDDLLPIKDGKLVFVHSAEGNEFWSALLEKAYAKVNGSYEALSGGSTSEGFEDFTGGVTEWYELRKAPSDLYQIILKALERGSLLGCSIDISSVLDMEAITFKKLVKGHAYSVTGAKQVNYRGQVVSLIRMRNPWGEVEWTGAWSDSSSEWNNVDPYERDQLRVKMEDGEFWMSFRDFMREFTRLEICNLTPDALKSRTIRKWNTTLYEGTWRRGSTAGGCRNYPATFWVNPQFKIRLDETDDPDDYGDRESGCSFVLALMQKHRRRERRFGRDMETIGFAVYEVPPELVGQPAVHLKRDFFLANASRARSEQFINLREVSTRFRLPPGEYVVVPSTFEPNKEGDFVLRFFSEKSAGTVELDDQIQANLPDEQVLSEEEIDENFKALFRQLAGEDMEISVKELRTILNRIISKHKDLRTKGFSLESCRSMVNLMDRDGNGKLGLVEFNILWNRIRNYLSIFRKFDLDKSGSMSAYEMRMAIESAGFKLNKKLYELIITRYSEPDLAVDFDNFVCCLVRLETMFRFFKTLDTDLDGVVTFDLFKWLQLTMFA
T1 sequence (P04632 1-268 partner): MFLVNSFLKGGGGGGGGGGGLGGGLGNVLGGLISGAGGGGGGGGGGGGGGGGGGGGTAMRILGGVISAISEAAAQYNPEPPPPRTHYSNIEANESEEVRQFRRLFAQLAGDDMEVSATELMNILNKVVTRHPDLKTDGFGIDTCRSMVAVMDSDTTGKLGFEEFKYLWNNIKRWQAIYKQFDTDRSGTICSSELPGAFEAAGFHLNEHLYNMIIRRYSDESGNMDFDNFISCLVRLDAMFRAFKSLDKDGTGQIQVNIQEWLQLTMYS
The test is described as follows: Calpain inhibition, continuous fluorescence (FRET substrate) assay, calpain 1. The settings on record: SensoLyte 520 FRET substrate, 25C. Format: biochemical. In short, it runs like this:
(§1)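 Continuous FRET read-out (ex 490/em 520 nm) of 5-FAM/QXL 520 substrate cleavage, started by adding substrate with CaCl2 for in-situ activation after enzyme–inhibitor preincubation at 25 °C. Buffer was Tris 50 mM pH 7.5, NaCl 100 mM, DTT 1 mM. IC50 fitted (4-parameter) from rates over 1-5 min.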

The test system of test [1] is Calpain activity in SH-SY5Y cells. The test is described as follows: SH-SY5Y spectrin breakdown product (SBDP-150) western blot assay. It counts as cell-based. The settings on record: Homo sapiens; SH-SY5Y cells, 25 uM A23187, SBDP-150 western blot; read-out: SH-SY5Y Spectrin IC50. In general terms: Immunoblotting shows a protein as a band on a membrane.
For another test, the target named is T2, Human Calpain 9/NS1 (Homo sapiens, UniProt O14815).
T2 sequence (O14815 1-690): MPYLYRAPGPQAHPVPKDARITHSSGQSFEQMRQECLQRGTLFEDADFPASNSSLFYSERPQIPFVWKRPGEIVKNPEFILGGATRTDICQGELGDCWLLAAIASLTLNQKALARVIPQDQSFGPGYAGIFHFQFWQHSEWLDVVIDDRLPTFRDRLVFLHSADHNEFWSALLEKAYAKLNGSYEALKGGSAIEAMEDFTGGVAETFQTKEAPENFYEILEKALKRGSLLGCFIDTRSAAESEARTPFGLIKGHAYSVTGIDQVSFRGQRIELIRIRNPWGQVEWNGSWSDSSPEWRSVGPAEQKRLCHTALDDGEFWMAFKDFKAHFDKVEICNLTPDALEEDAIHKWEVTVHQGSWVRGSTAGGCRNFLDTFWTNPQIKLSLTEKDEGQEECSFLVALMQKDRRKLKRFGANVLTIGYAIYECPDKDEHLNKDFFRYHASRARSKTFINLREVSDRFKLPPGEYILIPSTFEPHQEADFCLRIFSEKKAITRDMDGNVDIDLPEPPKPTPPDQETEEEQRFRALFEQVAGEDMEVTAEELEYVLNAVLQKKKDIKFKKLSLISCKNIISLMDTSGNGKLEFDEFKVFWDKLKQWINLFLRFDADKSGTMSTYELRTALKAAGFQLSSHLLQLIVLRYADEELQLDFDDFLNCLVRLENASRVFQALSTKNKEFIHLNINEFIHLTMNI
T2 sequence (P04632 1-268 partner): T1 sequence (P04632 1-268 partner)
Briefly: Calpain inhibition, continuous fluorescence (FRET substrate) assay, calpain 9. It counts as biochemical. The conditions noted are these: SensoLyte 520 FRET substrate, 25C. In short, it runs like this: as §1

The next test has as its target T3, Human Calpain 2/NS1 (Homo sapiens, UniProt P17655).
T3 sequence (P17655 1-700): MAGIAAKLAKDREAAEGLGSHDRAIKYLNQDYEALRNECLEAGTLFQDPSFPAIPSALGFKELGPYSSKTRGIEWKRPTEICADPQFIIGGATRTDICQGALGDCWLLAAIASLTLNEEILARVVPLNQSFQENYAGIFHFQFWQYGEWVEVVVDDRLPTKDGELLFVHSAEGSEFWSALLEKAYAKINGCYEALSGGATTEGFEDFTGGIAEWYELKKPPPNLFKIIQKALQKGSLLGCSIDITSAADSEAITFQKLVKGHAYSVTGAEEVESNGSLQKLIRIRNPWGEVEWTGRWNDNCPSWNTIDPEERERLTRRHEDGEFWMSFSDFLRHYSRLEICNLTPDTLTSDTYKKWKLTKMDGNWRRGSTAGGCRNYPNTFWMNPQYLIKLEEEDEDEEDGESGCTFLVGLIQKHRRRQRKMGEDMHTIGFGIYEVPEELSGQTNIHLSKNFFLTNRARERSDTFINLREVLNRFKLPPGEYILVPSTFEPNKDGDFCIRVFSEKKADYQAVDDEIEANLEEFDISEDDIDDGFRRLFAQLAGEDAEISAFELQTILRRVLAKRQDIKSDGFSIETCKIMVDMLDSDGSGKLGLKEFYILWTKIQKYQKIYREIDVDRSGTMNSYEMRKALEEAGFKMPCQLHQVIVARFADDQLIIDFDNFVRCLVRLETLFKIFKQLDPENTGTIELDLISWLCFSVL
T3 sequence (P04632 1-268 partner): T1 sequence (P04632 1-268 partner)
Briefly: Calpain inhibition, continuous fluorescence (FRET substrate) assay, calpain 2. Format: biochemical. The settings on record: SensoLyte 520 FRET substrate, 25C. In short, it runs like this: as §1

Test [2] deals with Calpain activity in SH-SY5Y cells. Briefly: SH-SY5Y Suc-LLVY-AMC fluorescence assay. It counts as cell-based. The conditions noted are these: Homo sapiens; SH-SY5Y cells, 100 uM Suc-LLVY-AMC; read-out: SH-SY5Y + AMC IC50.

`Cc1nc(-c2cc(Cl)oc2C)c(C(=O)NC(Cc2ccccc2)C(=O)C(N)=O)o1` (centres unmarked) [Compound 98, N-(4-AMINO-3,4-DIOXO-1-PHENYLBUTAN-2-YL)-4-(5-CHLORO-2-METHYLFURAN-3-YL)-2-METHYLOXAZOLE-5-CARBOXAMIDE]: the IC50 was less than 3 µM at Human Calpain 1/NS1; 10 to 25 µM in test [1]; less than 3 µM at Human Calpain 9/NS1; less than 3 µM against Human Calpain 2/NS1; less than 10 µM in test [2].

Take `Cn1cc(C(=O)NC(Cc2ccccc2)C(=O)C(N)=O)c(-c2cccc3c2cnn3C)n1` (centres unmarked) [Compound 32, N-(4-AMINO-3,4-DIOXO-1-PHENYLBUTAN-2-YL)-1-METHYL-3-(1-METHYL-1H-INDAZOL-4-YL)-1H-PYRAZOLE-4-CARBOXAMIDE]: the IC50 was less than 3 µM against Human Calpain 1/NS1; 10 to 25 µM in test [1]; less than 3 µM against Human Calpain 9/NS1; less than 3 µM against Human Calpain 2/NS1; 10 to 25 µM in test [2].

On to `O=C(O)C(=O)C(Cc1ccccc1)NC(=O)c1nsnc1-c1ccccc1` (centres unmarked) [Compound 67, 2-OXO-4-PHENYL-3-(4-PHENYL-1,2,5-THIADIAZOLE-3-CARBOXAMIDO)BUTANOIC ACID], for which the IC50 on Human Calpain 1/NS1 is less than 3 µM; in test [1], less than 10 µM; against Human Calpain 9/NS1 it was less than 3 µM; on Human Calpain 2/NS1 it was less than 3 µM; in test [2], less than 10 µM.

Consider `Cc1nc(-c2ccoc2Cl)c(C(=O)NC(Cc2ccccc2)C(=O)C(N)=O)o1` (centres unmarked) [Compound 90, N-(4-AMINO-3,4-DIOXO-1-PHENYLBUTAN-2-YL)-4-(2-CHLOROFURAN-3-YL)-2-METHYLOXAZOLE-5-CARBOXAMIDE], for which the half-maximal inhibitory concentration (IC50) against Human Calpain 1/NS1 was less than 3 µM; in test [1] it was 10 to 25 µM; on Human Calpain 9/NS1, less than 3 µM; at Human Calpain 2/NS1, less than 3 µM; in test [2] it was less than 10 µM.

Take `CC(C)n1c(=O)[nH]c2c(-c3nn(C)cc3C(=O)NC(Cc3ccccc3)C(=O)C(N)=O)cccc21` (centres unmarked) [Compound 103, N-(4-AMINO-3,4-DIOXO-1-PHENYLBUTAN-2-YL)-3-(1-ISOPROPYL-2-OXO-2,3-DIHYDRO-1H-BENZO[D]IMIDAZOL-4-YL)-1-METHYL-1H-PYRAZOLE-4-CARBOXAMIDE]: the IC50 against Human Calpain 1/NS1 was less than 3 µM; in test [1] it was less than 10 µM; at Human Calpain 9/NS1, less than 3 µM; at Human Calpain 2/NS1 it was less than 3 µM; in test [2] it was 10 to 25 µM.

For `Cc1nc(-c2cccc3sccc23)c(C(=O)NC(Cc2ccccc2)C(=O)C(N)=O)o1` (centres unmarked) [Compound 88, N-(4-AMINO-3,4-DIOXO-1-PHENYLBUTAN-2-YL)-4-(BENZO[b]THIOPHEN-4-YL)-2-METHYLOXAZOLE-5-CARBOXAMIDE], the IC50 was less than 3 µM on Human Calpain 1/NS1; more than 25 µM in test [1]; less than 3 µM at Human Calpain 9/NS1; less than 3 µM at Human Calpain 2/NS1; less than 10 µM in test [2].

On to `Cn1cc(C(=O)NC(Cc2ccccc2)C(=O)C(=O)O)c(-c2cccc(F)c2)n1` (centres unmarked) [Compound 72, 3-(3-(3-FLUOROPHENYL)-1-METHYL-1H-PYRAZOLE-4-CARBOXAMIDO)-2-OXO-4-PHENYLBUTANOIC ACID], for which the IC50 against Human Calpain 1/NS1 was less than 3 µM; in test [1], more than 25 µM; against Human Calpain 9/NS1, less than 3 µM; against Human Calpain 2/NS1, less than 3 µM; in test [2], less than 10 µM.

Take `O=C(O)C(=O)C(Cc1ccccc1)NC(=O)c1cn(C2CC2)nc1-c1ccccc1` (centres unmarked) [Compound 60, 3-(1-CYCLOPROPYL-3-PHENYL-1H-PYRAZOLE-4-CARBOXAMIDO)-2-OXO-4-PHENYLBUTANOIC ACID]: the IC50 was less than 3 µM on Human Calpain 1/NS1; 10 to 25 µM in test [1]; less than 3 µM at Human Calpain 9/NS1; less than 3 µM against Human Calpain 2/NS1; 10 to 25 µM in test [2].

For the compound `Cc1occc1-c1nn(C)cc1C(=O)NC(Cc1ccccc1)C(=O)C(N)=O` (centres unmarked) [Compound 28, N-(4-AMINO-3,4-DIOXO-1-PHENYLBUTAN-2-YL)-1-METHYL-3-(2-METHYLFURAN-3-YL)-1H-PYRAZOLE-4-CARBOXAMIDE], the 50% inhibitory concentration (IC50) against Human Calpain 1/NS1 was less than 3 µM; in test [1], more than 25 µM; against Human Calpain 9/NS1, less than 3 µM; at Human Calpain 2/NS1, less than 3 µM; in test [2] it was less than 10 µM.

Regarding `Cn1cc(C(=O)NC(Cc2ccccc2)C(=O)C(N)=O)c(-n2cnc3ccccc32)n1` (centres unmarked) [Compound 9, N-(4-AMINO-3,4-DIOXO-1-PHENYLBUTAN-2-YL)-3-(1H-BENZO[D]IMIDAZOL-1-YL)-1-METHYL-1H-PYRAZOLE-4-CARBOXAMIDE], the IC50 is less than 3 µM against Human Calpain 1/NS1; 10 to 25 µM in test [1]; less than 3 µM on Human Calpain 9/NS1; less than 3 µM on Human Calpain 2/NS1; more than 25 µM in test [2].

For `COC(=O)C(=O)C(Cc1ccccc1)NC(=O)c1nsnc1-c1ccccc1` (centres unmarked) [Compound 38, METHYL 2-OXO-4-PHENYL-3-(4-PHENYL-1,2,5-THIADIAZOLE-3-CARBOXAMIDO)BUTANOATE], the IC50 was less than 3 µM on Human Calpain 1/NS1; less than 10 µM in test [1]; less than 3 µM against Human Calpain 9/NS1; less than 3 µM on Human Calpain 2/NS1; less than 10 µM in test [2].

For the compound `NC(=O)C(=O)C(Cc1ccccc1)NC(=O)c1cn(C(F)F)nc1-c1ccoc1Cl` (centres unmarked) [Compound 20, N-(4-AMINO-3,4-DIOXO-1-PHENYLBUTAN-2-YL)-3-(2-CHLOROFURAN-3-YL)-1-(DIFLUOROMETHYL)-1H-PYRAZOLE-4-CARBOXAMIDE], the IC50 is less than 3 µM against Human Calpain 1/NS1; less than 10 µM in test [1]; less than 3 µM at Human Calpain 9/NS1; less than 3 µM against Human Calpain 2/NS1; less than 10 µM in test [2].

In the case of `Cn1cc(C(=O)NC(Cc2ccccc2)C(=O)C(N)=O)c(-c2cc(Cl)oc2Cl)n1` (centres unmarked) [Compound 15, N-(4-AMINO-3,4-DIOXO-1-PHENYLBUTAN-2-YL)-3-(2,5-DICHLOROFURAN-3-YL)-1-METHYL-1H-PYRAZOLE-4-CARBOXAMIDE], the IC50 against Human Calpain 1/NS1 is less than 3 µM; in test [1] it was 10 to 25 µM; against Human Calpain 9/NS1, less than 3 µM; on Human Calpain 2/NS1 it was less than 3 µM; in test [2], less than 10 µM.

The term IC50 denotes the point on the concentration scale where inhibition reaches its midpoint.

For the origin of these results see patent publication US20210009564A1, “CALPAIN MODULATORS AND THERAPEUTIC USES THEREOF” (BLADE THERAPERTICS, INC., priority 2018, published 2021).
